Measured values as given in patent publication US20230085307A1, “PYRIDAZINONE COMPOUND AND HERBICIDE” (NISSAN CHEMICAL CORPORATION, priority 2019, published 2023).

What was measured:
[1] = tested on: Italian ryegrass; test: Test Example 5: herbicidal effect by foliage application, plastic box (Table 20, symbol K); format: in vivo, Italian ryegrass (Lolium multiflorum); details: foliage application, 320 g/ha, three weeks after application
Outline: (§1)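 Foliar spray test: emulsion formulation diluted in water to a set application rate, sprayed onto 14-day-old plants raised in diluvial soil at 25° C to 30° C under glass. Both herbicidal effect and crop effect rated visually three weeks later.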

[2] = tested on: green foxtail; test: Test Example 4: herbicidal effect by soil treatment (Table 19, symbol G); format: in vivo, green foxtail (Setaria viridis); details: amount of applied herbicide 320 g/ha
Outline: (§2)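 Herbicidal effect was rated 3 weeks after treatment, using the scoring criteria of an earlier test. The compound, formulated as an emulsion and diluted in water to a set herbicide amount, had been sprayed uniformly on soil over freshly sown seeds. Growth took place in a greenhouse at 25° C. to 30° C.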

[3] = tested on: wild oat; test: Test Example 4: herbicidal effect by soil treatment (Table 19, symbol I); format: in vivo, wild oat (Avena fatua); details: amount of applied herbicide 320 g/ha
Outline: as §2

[4] = tested on: rapeseed; test: Test Example 5: effect on crop by foliage application, plastic box (Table 20, symbol g); format: in vivo; details: 320 g/ha, three weeks after application
Source text: (§3) [Test Example 5] Herbicidal Effect Test by Foliage Application
(§4) Sterilized diluvial soil was placed in a plastic box having a length of 21 cm, a width of 13 cm, and a depth of 7 cm. The seeds of each of southern crabgrass, green foxtail, barnyard grass, wild oat, blackgrass, Italian ryegrass, windgrass, velvetleaf, redroot pigweed, lambsquarters, chickweed, false cleavers, persian speedwell, corn, soybean, rice, wheat, beet, and rapeseed were sowed in a spot-like manner and covered with the soil having a thickness of about 1.5 cm. Thereafter, the plants were grown in a greenhouse at 25° C. to 30° C. After 14-day growth of the plants, the emulsion agent of the compound of the present invention prepared according to Formulation Example 2 was diluted with water so as to achieve a predetermined herbicide amount, and the diluted emulsion agent was uniformly applied to a foliage part with a small-sized spray. Three weeks after the herbicide application, the effect of the herbicide on each plant was evaluated according to the criteria of Test Example 1.

[5] = tested on: wheat; test: Test Example 4: effect on crop by soil treatment (Table 19, symbol e); format: in vivo; details: amount of applied herbicide 320 g/ha
Outline: as §2

[6] = tested on: southern crabgrass; test: Test Example 4: herbicidal effect by soil treatment (Table 19, symbol F); format: in vivo, southern crabgrass (Digitaria ciliaris); details: amount of applied herbicide 320 g/ha
Outline: as §2

[7] = tested on: beet; test: Test Example 5: effect on crop by foliage application, plastic box (Table 20, symbol f); format: in vivo; details: 320 g/ha, three weeks after application
Outline: as §1

[8] = tested on: persian speedwell; test: Test Example 5: herbicidal effect by foliage application, plastic box (Table 20, symbol R); format: in vivo, Persian speedwell (Veronica persica); details: foliage application, 320 g/ha, three weeks after application
Outline: as §1

[9] = tested on: barnyard grass; test: Test Example 3: herbicidal effect by foliage application, Wagner pot (Table 18, symbol H); format: in vivo, barnyard grass (Echinochloa crus-galli); details: 320 g/ha
Outline: (§5)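 Plants were sown in alluvial soil held under 0.1–0.5 cm standing water and grown 14 days in a greenhouse at 25–30 °C. An emulsifiable formulation, water-diluted to the set dose, was then sprayed onto the foliage, and effects were scored three weeks later using previously defined criteria.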

[10] = tested on: chickweed; test: Test Example 4: herbicidal effect by soil treatment (Table 19, symbol P); format: in vivo, common chickweed (Stellaria media); details: amount of applied herbicide 320 g/ha
Outline: as §2

[11] = tested on: redroot pigweed; test: Test Example 4: herbicidal effect by soil treatment (Table 19, symbol N); format: in vivo, redroot pigweed (Amaranthus retroflexus); details: amount of applied herbicide 320 g/ha
Outline: as §2

[12] = tested on: corn; test: Test Example 5: effect on crop by foliage application, plastic box (Table 20, symbol c); format: in vivo; details: 320 g/ha, three weeks after application
Outline: as §1

[13] = tested on: soybean; test: Test Example 5: effect on crop by foliage application, plastic box (Table 20, symbol d); format: in vivo; details: 320 g/ha, three weeks after application
Outline: as §1

[14] = tested on: rice flat sedge; test: Test Example 3: herbicidal effect by foliage application, Wagner pot (Table 18, symbol E); format: in vivo, rice flat sedge (Cyperus iria); details: 320 g/ha
Outline: as §5

[15] = tested on: lambsquarters; test: Test Example 4: herbicidal effect by soil treatment (Table 19, symbol O); format: in vivo, lambsquarters (Chenopodium album); details: amount of applied herbicide 320 g/ha
Outline: as §2

[16] = tested on: soybean; test: Test Example 4: effect on crop by soil treatment (Table 19, symbol d); format: in vivo; details: amount of applied herbicide 320 g/ha
Outline: as §2

[17] = tested on: velvetleaf; test: Test Example 5: herbicidal effect by foliage application, plastic box (Table 20, symbol M); format: in vivo, velvetleaf (Abutilon theophrasti); details: foliage application, 320 g/ha, three weeks after application
Outline: as §1

[18] = tested on: chickweed; test: Test Example 5: herbicidal effect by foliage application, plastic box (Table 20, symbol P); format: in vivo, common chickweed (Stellaria media); details: foliage application, 320 g/ha, three weeks after application
Outline: as §1

[19] = tested on: redroot pigweed; test: Test Example 5: herbicidal effect by foliage application, plastic box (Table 20, symbol N); format: in vivo, redroot pigweed (Amaranthus retroflexus); details: foliage application, 320 g/ha, three weeks after application
Outline: as §1

[20] = tested on: beet; test: Test Example 4: effect on crop by soil treatment (Table 19, symbol f); format: in vivo; details: amount of applied herbicide 320 g/ha
Outline: as §2

[21] = tested on: velvetleaf; test: Test Example 4: herbicidal effect by soil treatment (Table 19, symbol M); format: in vivo, velvetleaf (Abutilon theophrasti); details: amount of applied herbicide 320 g/ha
Outline: as §2

[22] = tested on: Chinese sprangletop; test: Test Example 3: herbicidal effect by foliage application, Wagner pot (Table 18, symbol D); format: in vivo, chinese sprangletop (Leptochloa chinensis); details: 320 g/ha
Outline: as §5

[23] = tested on: directly sowed rice; test: Test Example 3: effect on crop by foliage application, Wagner pot (Table 18, symbol b); format: in vivo; details: 320 g/ha
Outline: as §5

[24] = tested on: wheat; test: Test Example 5: effect on crop by foliage application, plastic box (Table 20, symbol e); format: in vivo; details: 320 g/ha, three weeks after application
Source text: as §3, §4

[25] = tested on: windgrass; test: Test Example 4: herbicidal effect by soil treatment (Table 19, symbol L); format: in vivo, windgrass (Apera spica-venti); details: amount of applied herbicide 320 g/ha
Outline: as §2

[26] = tested on: Italian ryegrass; test: Test Example 4: herbicidal effect by soil treatment (Table 19, symbol K); format: in vivo, Italian ryegrass (Lolium multiflorum); details: amount of applied herbicide 320 g/ha
Outline: as §2

[27] = tested on: wild oat; test: Test Example 5: herbicidal effect by foliage application, plastic box (Table 20, symbol I); format: in vivo, wild oat (Avena fatua); details: foliage application, 320 g/ha, three weeks after application
Outline: as §1

[28] = tested on: rapeseed; test: Test Example 4: effect on crop by soil treatment (Table 19, symbol g); format: in vivo; details: amount of applied herbicide 320 g/ha
Outline: as §2

[29] = tested on: blackgrass; test: Test Example 5: herbicidal effect by foliage application, plastic box (Table 20, symbol J); format: in vivo, blackgrass (Alopecurus myosuroides); details: foliage application, 320 g/ha, three weeks after application
Outline: as §1

[30] = tested on: corn; test: Test Example 4: effect on crop by soil treatment (Table 19, symbol c); format: in vivo; details: amount of applied herbicide 320 g/ha
Outline: as §2

[31] = tested on: lambsquarters; test: Test Example 5: herbicidal effect by foliage application, plastic box (Table 20, symbol O); format: in vivo, lambsquarters (Chenopodium album); details: foliage application, 320 g/ha, three weeks after application
Outline: as §1

[32] = tested on: windgrass; test: Test Example 5: herbicidal effect by foliage application, plastic box (Table 20, symbol L); format: in vivo, windgrass (Apera spica-venti); details: foliage application, 320 g/ha, three weeks after application
Outline: as §1

[33] = tested on: blackgrass; test: Test Example 4: herbicidal effect by soil treatment (Table 19, symbol J); format: in vivo, blackgrass (Alopecurus myosuroides); details: amount of applied herbicide 320 g/ha
Outline: as §2

[34] = tested on: green foxtail; test: Test Example 5: herbicidal effect by foliage application, plastic box (Table 20, symbol G); format: in vivo, green foxtail (Setaria viridis); details: foliage application, 320 g/ha, three weeks after application
Outline: as §1

[35] = tested on: barnyard grass; test: Test Example 5: herbicidal effect by foliage application, plastic box (Table 20, symbol H); format: in vivo, barnyard grass (Echinochloa crus-galli); details: foliage application, 320 g/ha, three weeks after application
Outline: as §1

[36] = tested on: barnyard grass; test: Test Example 4: herbicidal effect by soil treatment (Table 19, symbol H); format: in vivo, barnyard grass (Echinochloa crus-galli); details: amount of applied herbicide 320 g/ha
Outline: as §2

[37] = tested on: southern crabgrass; test: Test Example 5: herbicidal effect by foliage application, plastic box (Table 20, symbol F); format: in vivo, southern crabgrass (Digitaria ciliaris); details: foliage application, 320 g/ha, three weeks after application
Outline: as §1

[38] = tested on: persian speedwell; test: Test Example 4: herbicidal effect by soil treatment (Table 19, symbol R); format: in vivo, Persian speedwell (Veronica persica); details: amount of applied herbicide 320 g/ha
Outline: as §2

In the case of COc1ccc2c(-c3c(O)c(N)nn(C)c3=O)c(-c3ccccc3OC)sc2c1 [Compound No. 3-087, 6-amino-5-hydroxy-4-(6-methoxy-2-(2-methoxyphenyl)benzo[b]thiophen-3-yl)-2-methyl pyridazin-3(2H)-one], the “K: Italian ryegrass, herbicidal effect grade” value [1] is reported as 1 (Herbicidal rate of 5% or more and less than 20%), the “G: green foxtail, herbicidal effect grade” value [2] is reported as 0 (Herbicidal rate of 5% or less (almost no effect)) and the “I: wild oat, herbicidal effect grade” value [3] is reported as 0 (Herbicidal rate of 5% or less (almost no effect)). The “g: rapeseed, effect on crop grade” value [4] was 4 (Herbicidal rate of 70% or more and less than 90%), the “e: wheat, effect on crop grade” value [5] was 0 (Herbicidal rate of 5% or less (almost no effect)) and the “F: southern crabgrass, herbicidal effect grade” value [6] was 0 (Herbicidal rate of 5% or less (almost no effect)). For the same molecule, the “f: beet, effect on crop grade” value [7] was 4 (Herbicidal rate of 70% or more and less than 90%), the “R: persian speedwell, herbicidal effect grade” value [8] was 4 (Herbicidal rate of 70% or more and less than 90%) and the “herbicidal effect on barnyard grass (H)” value [9] was 4 (Herbicidal rate of 70% or more and less than 90%). The “P: chickweed, herbicidal effect grade” value [10] was 3 (Herbicidal rate of 40% or more and less than 70%), the “N: redroot pigweed, herbicidal effect grade” value [11] was 0 (Herbicidal rate of 5% or less (almost no effect)) and the “c: corn, effect on crop grade” value [12] was 0 (Herbicidal rate of 5% or less (almost no effect)). For the same molecule, the “d: soybean, effect on crop grade” value [13] was 0 (Herbicidal rate of 5% or less (almost no effect)), the “herbicidal effect on rice flat sedge (E)” value [14] was 3 (Herbicidal rate of 40% or more and less than 70%) and the “O: lambsquarters, herbicidal effect grade” value [15] was 0 (Herbicidal rate of 5% or less (almost no effect)). The “d: soybean, effect on crop grade” value [16] was 0 (Herbicidal rate of 5% or less (almost no effect)), the “M: velvetleaf, herbicidal effect grade” value [17] was 0 (Herbicidal rate of 5% or less (almost no effect)) and the “P: chickweed, herbicidal effect grade” value [18] was 5 (Herbicidal rate of 90% or more (almost completely withered)). The “N: redroot pigweed, herbicidal effect grade” value [19] was 1 (Herbicidal rate of 5% or more and less than 20%), the “f: beet, effect on crop grade” value [20] was 0 (Herbicidal rate of 5% or less (almost no effect)) and the “M: velvetleaf, herbicidal effect grade” value [21] was 0 (Herbicidal rate of 5% or less (almost no effect)). For the same molecule, the “herbicidal effect on Chinese sprangletop (D)” value [22] was 0 (Herbicidal rate of 5% or less (almost no effect)), the “effect on directly sowed rice (b)” value [23] was 1 (Herbicidal rate of 5% or more and less than 20%) and the “e: wheat, effect on crop grade” value [24] was 0 (Herbicidal rate of 5% or less (almost no effect)). The “L: windgrass, herbicidal effect grade” value [25] was 0 (Herbicidal rate of 5% or less (almost no effect)), the “K: Italian ryegrass, herbicidal effect grade” value [26] was 0 (Herbicidal rate of 5% or less (almost no effect)) and the “I: wild oat, herbicidal effect grade” value [27] was 0 (Herbicidal rate of 5% or less (almost no effect)). For the same molecule, the “g: rapeseed, effect on crop grade” value [28] was 0 (Herbicidal rate of 5% or less (almost no effect)), the “J: blackgrass, herbicidal effect grade” value [29] was 4 (Herbicidal rate of 70% or more and less than 90%) and the “c: corn, effect on crop grade” value [30] was 0 (Herbicidal rate of 5% or less (almost no effect)). For the same molecule, the “O: lambsquarters, herbicidal effect grade” value [31] was 0 (Herbicidal rate of 5% or less (almost no effect)), the “L: windgrass, herbicidal effect grade” value [32] was 5 (Herbicidal rate of 90% or more (almost completely withered)) and the melting point was 286 to 288 °C. For the same molecule, the “J: blackgrass, herbicidal effect grade” value [33] was 0 (Herbicidal rate of 5% or less (almost no effect)), the “G: green foxtail, herbicidal effect grade” value [34] was 0 (Herbicidal rate of 5% or less (almost no effect)) and the “H: barnyard grass, herbicidal effect grade” value [35] was 3 (Herbicidal rate of 40% or more and less than 70%). For the same molecule, the “H: barnyard grass, herbicidal effect grade” value [36] was 0 (Herbicidal rate of 5% or less (almost no effect)), the “F: southern crabgrass, herbicidal effect grade” value [37] was 0 (Herbicidal rate of 5% or less (almost no effect)) and the “R: persian speedwell, herbicidal effect grade” value [38] was 3 (Herbicidal rate of 40% or more and less than 70%).
